Source: patent publication US9701675B2, “Activation of TRPV4 ion channel by physical stimuli and critical role for TRPV4 in organ-specific inflammation and itch” (Duke University, priority 2012, dated 2017)
“Also recorded” adds a separate entry of the source. Where a SMILES comes first, the peptide text is derived from it. [ ]: non-standard residue; d: D form.

Key:
[1] = target: T1, TRPV4 (Mus musculus, UniProt Q9EPK8); assay: 4α-PDD-evoked Ca++ signaling in 1° MK (fura-2 ratiometric imaging); format: cell-based
T1 construct: endogenous in cells; host or cells: primary mouse keratinocytes (WT 1° MK)
T1 sequence (Q9EPK8 whole entry): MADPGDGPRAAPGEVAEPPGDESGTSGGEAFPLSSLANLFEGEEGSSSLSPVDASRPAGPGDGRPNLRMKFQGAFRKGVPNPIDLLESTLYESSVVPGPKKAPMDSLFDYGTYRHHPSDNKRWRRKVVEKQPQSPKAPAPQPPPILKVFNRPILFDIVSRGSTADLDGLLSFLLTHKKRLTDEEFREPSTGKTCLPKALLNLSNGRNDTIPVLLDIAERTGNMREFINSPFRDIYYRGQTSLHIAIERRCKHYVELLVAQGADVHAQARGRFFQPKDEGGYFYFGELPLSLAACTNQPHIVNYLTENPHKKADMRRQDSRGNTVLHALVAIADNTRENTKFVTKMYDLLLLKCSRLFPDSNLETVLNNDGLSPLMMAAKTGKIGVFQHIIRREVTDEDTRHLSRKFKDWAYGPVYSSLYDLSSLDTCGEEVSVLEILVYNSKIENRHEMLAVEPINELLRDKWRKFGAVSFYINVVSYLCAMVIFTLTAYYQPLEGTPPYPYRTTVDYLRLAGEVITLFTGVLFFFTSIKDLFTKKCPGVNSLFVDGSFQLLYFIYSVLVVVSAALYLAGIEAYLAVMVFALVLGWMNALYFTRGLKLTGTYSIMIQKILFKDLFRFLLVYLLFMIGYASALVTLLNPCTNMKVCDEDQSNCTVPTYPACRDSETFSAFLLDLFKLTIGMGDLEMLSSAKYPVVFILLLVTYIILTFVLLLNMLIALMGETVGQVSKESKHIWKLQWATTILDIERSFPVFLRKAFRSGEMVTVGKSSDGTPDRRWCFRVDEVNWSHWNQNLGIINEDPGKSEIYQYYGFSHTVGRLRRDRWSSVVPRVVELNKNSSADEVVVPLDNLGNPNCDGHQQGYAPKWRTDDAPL
Description: (§1) Ca++ imaging of mouse 1° MK in response to chemical activation of TRPV4 was conducted after loading with 2 μM fura2-AM, following a ratiometric Ca2+ imaging protocol with 340/380 nm […] for dual excitation. Ratios of emissions were acquired at 0.5 Hz. ΔR/R0 was determined as the fraction of the increase of a given ratio over baseline ratio, divided by baseline ratio. For stimulation of cells with UVB, where fura-2 was not suitable because of the proximity of stimulation with 340/380 nm and 295 nm, 2 μM fluo4-AM was used instead. Ca++ imaging was carried out at 488 nm excitation, acquisition of emissions at 0.5 Hz, expressed as ΔF/F0. In the custom-built UV optical system, UV LEDs were capped with a ball lens, a transparent optical window in the shape of a hemispherical lens (FIG. 2B). The LED output optical beam focused at 15-20 mm from the lens, with a spot diameter of approximately 1.5-2.0 mm (FIG. 2C). […] The thermal equilibration stage was set for physiological temperature. We confirmed the non-thermal nature of UVB stimulation using the customized 295 nm LED device in a dedicated experiment (FIG. 2D), thus confirming the specific modality of stimulation as UVB.

[2] = test system: primary mouse epidermal keratinocytes (1° MK); assay: UVB-evoked Ca++ signaling in primary mouse keratinocytes (fluo-4 imaging); format: cell-based; conditions: for effect on ET1-augmented, UVB-induced Ca++ transients in 1° MK: UVB and ET1 co-exposure; for effect on UVB-evoked Ca++ signal in 1° MK: concentration not given (IPP: same dose as against camphor)
Description: Ca++ imaging of 1° MK was conducted following routine procedures. For UVB stimulation, a customized device was built. The system comprised a printed circuit board for electrical interconnects and mechanical support and an ultraviolet light-emitting diode (UV LED).
The operating wavelength was 295 nm (FIG. 2A), with a full-width half-max of 12 nm. The optical power was 500 mW. The focal point was aimed at the plane of the upper surface of the quartz coverslip, which was used to minimize UV absorption along the optical path towards the cells (FIG. 2A-C). The optical intensity at the focal point was estimated to be 150 mW/mm^2.
as §1, with “temperature.” for “temperature. We confirmed the non-thermal nature of UVB stimulation using the customized 295 nm LED device in a dedicated experiment (FIG. 2D), thus confirming the specific modality of stimulation as UVB.”

[3] = test system: ET1; assay: ET1 secretion by non-stimulated 1° MK (ELISA of supernatant); format: cell-based, mouse; conditions: two doses of GSK205, dose-dependent
[4] = test system: ET1; assay: ET1 expression by UVB-exposed 1° MK (immunocytochemistry); format: cell-based, mouse; conditions: for ET1 immunoreactivity in UVB-exposed 1° MK: immunolabeling 24 hours after UVB-LED; for ET1 expression in UVB-exposed 1° MK, densitometric quantification: vs. control-treated and UVB-exposed cells, n≧25 cells, p<0.05
Description: 1° MK were exposed to UVB using the UV optical system (295 nm LED). 24 hours later the cells were fixed and fluorescently immunolabeled for ET1. Digital images were captured and subjected to morphometry.
Mouse keratinocytes were cultured on collagen coated quartz coverslips and then stimulated from the bottom using the previously mentioned UV optical system using the 295 nm LED. 24 hours later the cells were fixed in 4% formaldehyde in PBS for 20 minutes, permeabilized with 0.1% Triton X-100 in PBS for 10 minutes, washed, then blocked in 10% normal goat serum in PBS for 45 minutes. Coverslips were incubated overnight with primary antibody mouse anti-ET1 (1:200; Abcam), washed three times in PBS and incubated with secondary antibody for 2 hours at 25° C. Coverslips were washed three times in PBS, once with double-distilled H2O. Digital images were captured using a 40× immersion lens on the BX61 Olympus upright microscope. Morphometric analysis was conducted using ImageJ freeware with tailored regions-of-interest.

[5] = target: T1, TRPV4; assay: GSK101-evoked Ca++ transient in 1° MK (fura-2); format: cell-based
Description: as §1

[6] = target: T2, TRPV3 (Mus musculus, UniProt Q8K424); assay: TRPV3 activation experiment: camphor-evoked Ca++ transient in keratinocytes; format: cell-based
T2 construct: endogenous in cells; host or cells: primary mouse keratinocytes (1° MK)
T2 sequence (Q8K424 1-791): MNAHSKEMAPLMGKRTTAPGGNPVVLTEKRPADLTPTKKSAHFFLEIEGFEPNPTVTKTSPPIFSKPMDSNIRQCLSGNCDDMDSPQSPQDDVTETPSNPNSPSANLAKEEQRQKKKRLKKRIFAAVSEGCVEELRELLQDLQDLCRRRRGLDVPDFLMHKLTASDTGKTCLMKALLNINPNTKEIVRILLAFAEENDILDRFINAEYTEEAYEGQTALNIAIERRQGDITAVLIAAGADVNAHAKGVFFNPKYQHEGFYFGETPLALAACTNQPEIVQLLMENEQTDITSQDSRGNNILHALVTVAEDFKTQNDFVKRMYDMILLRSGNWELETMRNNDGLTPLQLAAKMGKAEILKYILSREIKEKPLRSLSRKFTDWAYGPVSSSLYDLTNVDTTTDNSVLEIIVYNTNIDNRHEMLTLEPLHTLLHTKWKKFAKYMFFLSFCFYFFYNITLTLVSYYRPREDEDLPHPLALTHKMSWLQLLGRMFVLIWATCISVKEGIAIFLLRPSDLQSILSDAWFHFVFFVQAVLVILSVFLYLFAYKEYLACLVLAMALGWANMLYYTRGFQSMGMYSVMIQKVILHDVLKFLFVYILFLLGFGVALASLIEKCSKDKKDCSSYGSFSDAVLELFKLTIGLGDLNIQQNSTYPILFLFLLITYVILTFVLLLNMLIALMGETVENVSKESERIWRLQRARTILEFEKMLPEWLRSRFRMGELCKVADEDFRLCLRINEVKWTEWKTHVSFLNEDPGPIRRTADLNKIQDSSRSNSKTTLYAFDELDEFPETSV

[7] = test system: mice; assay: Nocifensive behavior in response to ET1 footpad injection (von Frey); format: in vivo, mouse
Description: ET1 injections: After determining base-line withdrawal thresholds, each animal received an intraplantar injection of 10 μL 100 nM ET-1 plus contralateral vehicle. Thresholds were again evaluated 1 hour after injection.
Hindpaw mechanical withdrawal thresholds were determined by the automated von Frey hair method, using a 0.5 mm diameter stainless steel filament, part of an automated plantar touch stimulator (Ugo Basile, Modena, Italy). Relevant detail included pre-test acclimatization in a quiet room for 30 min, conducting the test at the same time of day and blinded observers. The stimulus was delivered to the hindpaw, automatically discontinued upon withdrawal, and its intensity recorded automatically. 6-8 trials per animal were conducted, with equal exposure of both hindpaws, leading to an average withdrawal threshold. Results are reported as Δ-threshold, which was calculated by subtracting post-treatment from pre-treatment measurements, expressed as % or relative to 1.0.

Compound | effect on UVB-evoked Ca++ signal in 1° MK [2] | ET1 secretion by non-stimulated 1° MK [3] | ET1 immunoreactivity in UVB-exposed 1° MK [4] | ET1 expression in UVB-exposed 1° MK, densitometric quantification [4] | other results
CCCCCCCCCC(=O)O[C@@H]1[C@@H](C)[C@@]2(O)[C@@H](C=C(CO)C[C@@]3(O)C(=O)C(C)=C[C@@H]23)[C@@H]2C(C)(C)[C@]12OC(=O)CCCCCCCCC [4α-PDD, 4α-phorbol 12,13 didecanoate] | – | – | – | – | Ca++ transients evoked in 1° MK ([1]; 4α-PDD): Ca++ transients
CC(C)C[C@@H]1NC(=O)[C@@H](C(C)C)NC(=O)[C@@H]2CCCN2C(=O)[C@@H](CC(=O)O)NC(=O)[C@@H](Cc2c[nH]c3ccccc23)NC1=O [BQ123] (cyclo(L[dW][dD]P[dV])) | – | – | – | – | effect on ET1-augmented, UVB-induced Ca++ transients in 1° MK [2]: attenuated
CCCC[C@@H](NC(=O)[C@@H](Cc1cn(C(=O)OC)c2ccccc12)NC(=O)[C@H](CC(C)(C)C)NC(=O)N1[C@H](C)CCC[C@@H]1C)C(=O)O [BQ788] | – | – | – | – | effect on ET1-augmented, UVB-induced Ca++ transients in 1° MK [2]: attenuated
O=C(O)C(Cc1ccc2c(c1)oc1ccccc12)NCP(=O)(O)O (stereo not shown) [CGS35066] | significantly diminished; also recorded: significant attenuation | down-regulation | significant down-regulation | significant down-regulation | –
CC(C)C[C@H](NC(=O)c1cc2ccccc2s1)C(=O)N1CCN(C(=O)[C@H](CO)NS(=O)(=O)c2ccc(Cl)cc2Cl)CC1 [GSK101] | – | – | – | – | Ca++ transient evoked in 1° MK ([5]; 5 nM GSK101, WT 1° MK): directly stimulate TRPV4; also recorded: Ca++ transient
C=C(C)CCO[P@@](=O)(O)OP(=O)(O)O [IPP, isopentenyl pyrophosphate] | no effect; also recorded: not inhibited | – | – | – | –
CC(C)NCCN(C(C)C)S(=O)(=O)c1ccc(Cl)cc1Cl [RN1734] | – | significant down-regulation | diminished; also recorded: significant down-regulation | significant down-regulation | –
COc1ccc2c(c1)CC[C@@H]1[C@@H]2CC[C@]2(C)[C@@H](NCCCCCCN3C(=O)C=CC3=O)CC[C@@H]12 [U73122] | virtually eliminated; also recorded: strongly reduced | down-regulation | dampened; also recorded: significant down-regulation | significant down-regulation | –
CC12CCC(CC1=O)C2(C)C (stereo not shown) [camphor, Camphor] | – | – | – | – | induction of a Ca++ transient [6]: Induction of a Ca++ transient
endothelin-1 [ET1] | – | – | – | – | effect of ET1 co-exposure on UVB-evoked Ca++ transients in 1° MK ([2]; co-exposure UVB + ET1 peptide): significant increase; also recorded: augmentation; effect of ET1 on GSK101-evoked Ca++ signaling ([5]; 5 nM GSK101, co-exposure to ET1): augmented; also recorded: increase in signal; effect of ET1 co-application on 4α-PDD-evoked Ca++ response ([1]; co-application with 4α-PDD): significant increase; mechanical allodynia after ET1 footpad injection, TRPV4-deficient mice ([7]; Trpv4−/− and tam-treated iKO mice): fail to respond; mechanical withdrawal thresholds after ET1 footpad injection, control mice ([7]; WT and oil-treated iKO mice, 10 μL 100 nM ET-1 intraplantar): significantly lowered; also recorded: significant levels of mechanical allodynia
